Assay results as given in ChEMBL document CHEMBL1909046, “DrugMatrix in vitro pharmacology data”.

Key:
[1] = biological target: Adenosine receptor A2a (Homo sapiens, UniProt P29274); assay: DRUGMATRIX: Adenosine A2A radioligand binding (ligand: […]); assay type: cell membranes, HEK293, Membrane; conditions: hek293; Not Active = under 50% inhibition at 10 µM
[2] = biological target: T1, Calcitonin receptor (Homo sapiens, UniProt P30988); assay type: cell membranes, Membrane; conditions: t47d; note: in other assays of this panel Not Active means under 50% inhibition at 10 µM
T1 sequence (P30988 whole entry): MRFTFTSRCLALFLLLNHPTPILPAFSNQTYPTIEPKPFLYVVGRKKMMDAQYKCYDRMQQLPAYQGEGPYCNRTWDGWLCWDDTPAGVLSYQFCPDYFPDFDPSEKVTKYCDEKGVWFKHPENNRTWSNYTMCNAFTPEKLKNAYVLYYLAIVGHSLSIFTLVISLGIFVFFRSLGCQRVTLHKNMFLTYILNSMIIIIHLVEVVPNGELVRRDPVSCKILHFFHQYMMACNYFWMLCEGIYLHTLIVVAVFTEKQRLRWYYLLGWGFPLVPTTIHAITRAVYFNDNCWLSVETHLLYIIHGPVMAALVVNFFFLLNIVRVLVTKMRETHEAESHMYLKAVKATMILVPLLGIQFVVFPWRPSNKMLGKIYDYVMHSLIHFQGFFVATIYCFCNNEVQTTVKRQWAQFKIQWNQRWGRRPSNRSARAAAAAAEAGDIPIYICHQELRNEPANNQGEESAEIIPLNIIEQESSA

[3] = biological target: T2, Muscarinic acetylcholine receptor M4 (Homo sapiens, UniProt P08173); assay type: cell membranes, CHO-K1, Membrane; note: in other assays of this panel Not Active means under 50% inhibition at 10 µM
T2 sequence (P08173 whole entry): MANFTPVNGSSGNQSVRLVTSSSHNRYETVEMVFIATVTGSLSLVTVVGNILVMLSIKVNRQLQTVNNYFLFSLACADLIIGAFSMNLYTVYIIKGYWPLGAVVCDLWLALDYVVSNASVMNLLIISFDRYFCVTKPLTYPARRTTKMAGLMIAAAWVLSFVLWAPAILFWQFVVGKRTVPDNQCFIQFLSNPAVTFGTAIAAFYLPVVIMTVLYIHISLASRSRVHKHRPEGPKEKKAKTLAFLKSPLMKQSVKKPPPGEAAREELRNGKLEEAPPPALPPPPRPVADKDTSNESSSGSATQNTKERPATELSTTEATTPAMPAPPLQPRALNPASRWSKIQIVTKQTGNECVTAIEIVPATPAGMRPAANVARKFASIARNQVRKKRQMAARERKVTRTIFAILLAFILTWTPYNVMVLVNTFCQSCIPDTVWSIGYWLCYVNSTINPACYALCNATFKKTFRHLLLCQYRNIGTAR

[4] = biological target: cGMP-specific 3',5'-cyclic phosphodiesterase (Homo sapiens, UniProt O76074); assay: DRUGMATRIX: Phosphodiesterase PDE5 enzyme inhibition (substrate: [3H]cGMP + cGMP); assay type: tissue-based, Platelet; conditions: platelet; Not Active = under 50% inhibition at 10 µM
[5] = biological target: Epidermal growth factor receptor (Homo sapiens, UniProt P00533); assay: DRUGMATRIX: Protein Tyrosine Kinase, EGF Receptor enzyme inhibition (substrate: Poly(Glu:Tyr)); assay type: cell-based, Insect cells; conditions: Not Active = under 50% inhibition at 10 µM
[6] = biological target: T3, Neuropeptide Y receptor type 2 (Homo sapiens, UniProt P49146); assay type: cell membranes, KAN-TS, Membrane; conditions: kan-ts; note: in other assays of this panel Not Active means under 50% inhibition at 10 µM
T3 sequence (P49146 whole entry): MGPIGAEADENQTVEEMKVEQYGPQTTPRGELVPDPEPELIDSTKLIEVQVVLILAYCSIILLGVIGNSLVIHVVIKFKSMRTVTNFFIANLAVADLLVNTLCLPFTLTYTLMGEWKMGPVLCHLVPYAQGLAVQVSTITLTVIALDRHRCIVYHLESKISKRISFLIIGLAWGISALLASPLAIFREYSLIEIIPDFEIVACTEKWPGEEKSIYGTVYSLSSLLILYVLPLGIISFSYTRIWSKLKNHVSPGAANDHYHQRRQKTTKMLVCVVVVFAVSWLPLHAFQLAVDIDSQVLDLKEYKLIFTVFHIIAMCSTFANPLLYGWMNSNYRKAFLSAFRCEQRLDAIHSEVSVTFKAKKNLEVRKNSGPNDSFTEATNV

[7] = biological target: Beta-2 adrenergic receptor (Homo sapiens, UniProt P07550); assay: DRUGMATRIX: Adrenergic beta2 radioligand binding (ligand: [3H] CGP-12177); assay type: cell membranes, CHO, Membrane; conditions: cho; Not Active = under 50% inhibition at 10 µM

Chain of Adenosine receptor A2a (P29274 whole entry): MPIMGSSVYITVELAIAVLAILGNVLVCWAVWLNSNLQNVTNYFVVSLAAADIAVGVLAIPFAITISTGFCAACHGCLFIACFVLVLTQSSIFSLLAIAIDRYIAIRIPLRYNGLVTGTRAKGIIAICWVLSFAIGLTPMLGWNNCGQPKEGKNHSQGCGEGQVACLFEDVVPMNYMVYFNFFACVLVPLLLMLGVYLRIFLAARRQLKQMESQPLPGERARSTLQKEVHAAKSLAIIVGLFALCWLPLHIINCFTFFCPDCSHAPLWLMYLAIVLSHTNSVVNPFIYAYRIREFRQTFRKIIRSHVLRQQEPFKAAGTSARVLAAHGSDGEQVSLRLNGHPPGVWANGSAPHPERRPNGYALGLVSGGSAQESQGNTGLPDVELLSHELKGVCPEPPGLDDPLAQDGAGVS

Molecule: O=C(O)c1cn(-c2ccc(F)cc2)c2cc(N3CCNCC3)c(F)cc2c1=O [SARAFLOXACIN]
- IC50 [1]: Not Active
- IC50 [2]: Not Active
- IC50 ([3]; cho-k1): Not Active
- IC50 [4]: Not Active
- IC50 ([5]; insect cells): Not Active
- IC50 [6]: Not Active
- IC50 [7]: Not Active

Molecule: CN[C@H]1CC[C@@H](c2ccc(Cl)c(Cl)c2)c2ccccc21 [SERTRALINE]
- IC50 [1]: Not Active
- IC50 [2]: Not Active
- IC50 ([3]; read-out: IC50): 2630 nM
- Ki ([3]; read-out: Ki): 367 nM
- IC50 [4]: Not Active
- IC50 ([5]; insect cells): Not Active
- IC50 [6]: Not Active
- IC50 [7]: Not Active

Molecule: O.O.O.O.O.O.[Cl-].[Cl-].[Sr+2] [STRONTIUM CHLORIDE HEXAHYDRATE]
- IC50 [1]: Not Active
- IC50 [2]: Not Active
- IC50 ([3]; cho-k1): Not Active
- IC50 [4]: Not Active
- IC50 ([5]; insect cells): Not Active
- IC50 [6]: Not Active
- IC50 [7]: Not Active

Molecule: O=C1C(CC[S+]([O-])c2ccccc2)C(=O)N(c2ccccc2)N1c1ccccc1 (configuration not stated) [SULFINPYRAZONE]
- IC50 [1]: Not Active
- IC50 [2]: Not Active
- IC50 ([3]; cho-k1): Not Active
- IC50 [4]: Not Active
- IC50 ([5]; insect cells): Not Active
- IC50 [6]: Not Active
- IC50 [7]: Not Active

Molecule: NC(=O)N1C(=O)/C(=C(\O)c2cccs2)c2cc(Cl)ccc21 [TENIDAP]
- IC50 [1]: Not Active
- IC50 [2]: Not Active
- IC50 ([3]; cho-k1): Not Active
- IC50 [4]: Not Active
- IC50 ([5]; insect cells): Not Active
- IC50 [6]: Not Active
- IC50 [7]: Not Active

Molecule: COc1cc2nc(N3CCN(C(=O)C4CCCO4)CC3)nc(N)c2cc1OC (configuration not stated) [TERAZOSIN]
- IC50 [1]: Not Active
- IC50 [2]: Not Active
- IC50 ([3]; cho-k1): Not Active
- IC50 [4]: Not Active
- IC50 ([5]; insect cells): Not Active
- IC50 [6]: Not Active
- IC50 [7]: Not Active

Molecule: CN(C/C=C/C#CC(C)(C)C)Cc1cccc2ccccc12 [TERBINAFINE]
- IC50 [1]: Not Active
- IC50 [2]: Not Active
- IC50 ([3]; cho-k1): Not Active
- IC50 [4]: Not Active
- IC50 ([5]; insect cells): Not Active
- IC50 [6]: Not Active
- IC50 [7]: Not Active

Molecule: CCCCNc1ccc(C(=O)OCCN(C)C)cc1 [TETRACAINE]
- IC50 [1]: Not Active
- IC50 [2]: Not Active
- IC50 ([3]; cho-k1): Not Active
- IC50 [4]: Not Active
- IC50 ([5]; insect cells): Not Active
- IC50 [6]: Not Active
- IC50 [7]: Not Active

Molecule: CS(=O)(=O)c1ccc([C@@H](O)[C@@H](CO)NC(=O)C(Cl)Cl)cc1 [THIAMPHENICOL]
- IC50 [1]: Not Active
- IC50 [2]: Not Active
- IC50 ([3]; cho-k1): Not Active
- IC50 [4]: Not Active
- IC50 ([5]; insect cells): Not Active
- IC50 [6]: Not Active
- IC50 [7]: Not Active

Molecule: CCN(CC)CCNC(=O)c1cc(S(C)(=O)=O)ccc1OC [TIAPRIDE]
- IC50 [1]: Not Active
- IC50 [2]: Not Active
- IC50 ([3]; cho-k1): Not Active
- IC50 [4]: Not Active
- IC50 ([5]; insect cells): Not Active
- IC50 [6]: Not Active
- IC50 [7]: Not Active

Molecule: Clc1ccccc1CN1CCc2sccc2C1 [TICLOPIDINE]
- IC50 [1]: Not Active
- IC50 [2]: Not Active
- IC50 ([3]; cho-k1): Not Active
- IC50 [4]: Not Active
- IC50 ([5]; insect cells): Not Active
- IC50 [6]: Not Active
- IC50 [7]: Not Active

Molecule: NC1CCN(c2nc3c(cc2F)c(=O)c(C(=O)O)cn3-c2ccc(F)cc2F)C1 (configuration not stated) [TOSUFLOXACIN]
- IC50 [1]: Not Active
- IC50 [2]: Not Active
- IC50 ([3]; cho-k1): Not Active
- IC50 [4]: Not Active
- IC50 ([5]; insect cells): Not Active
- IC50 [6]: Not Active
- IC50 [7]: Not Active

Molecule: O=C(Nc1ccc(Br)cc1)c1cc(Br)cc(Br)c1O [TRIBROMSALAN]
- IC50 [1]: Not Active
- IC50 [2]: Not Active
- IC50 ([3]; cho-k1): Not Active
- IC50 [4]: Not Active
- IC50 ([5]; read-out: IC50): 2990 nM
- IC50 [6]: Not Active
- IC50 [7]: Not Active

Molecule: CC(c1cc2ccccc2s1)N(O)C(N)=O (configuration not stated) [ZILEUTON]
- IC50 [1]: Not Active
- IC50 [2]: Not Active
- IC50 ([3]; cho-k1): Not Active
- IC50 [4]: Not Active
- IC50 ([5]; insect cells): Not Active
- IC50 [6]: Not Active
- IC50 [7]: Not Active

Molecule: MANGANESE CHLORIDE ANHYDROUS
- IC50 [1]: Not Active
- Ki [1]: Not Active
- IC50 [2]: Not Active
- Ki [2]: Not Active
- IC50 ([3]; cho-k1): Not Active
- Ki ([3]; cho-k1): Not Active
- IC50 [4]: Not Active
- Ki [4]: Not Active
- IC50 ([5]; insect cells): Not Active
- Ki ([5]; insect cells): Not Active
- IC50 [6]: Not Active
- Ki [6]: Not Active
- IC50 [7]: Not Active
- Ki [7]: Not Active

Molecule: SODIUM ORTHOVANAD
- IC50 [1]: Not Active
- Ki [1]: Not Active
- IC50 [2]: Not Active
- Ki [2]: Not Active
- IC50 ([3]; cho-k1): Not Active
- Ki ([3]; cho-k1): Not Active
- IC50 [4]: Not Active
- Ki [4]: Not Active
- IC50 ([5]; insect cells): Not Active
- Ki ([5]; insect cells): Not Active
- IC50 [6]: Not Active
- Ki [6]: Not Active
- IC50 [7]: Not Active
- Ki [7]: Not Active
